Source: ChEMBL document CHEMBL1255345, “Efficacies of ceftobiprole medocaril and comparators in a rabbit model of osteomyelitis due to methicillin-resistant Staphylococcus aureus” (Antimicrob Agents Chemother, 2008)
Converted amounts (≈) assume the structure as drawn. The source made the active and inactive calls. The calls are words filed in the database; no cut-off is given here.

How the values were obtained:
Staphylococcus aureus [1] = test: Antimicrobial activity against methicillin-resistant Staphylococcus aureus infected in New Zealand rabbit osteomyelitis model assessed as improvement in extent of bone remodeling at 60 mg/kg, po administered every 8 hrs for 4 weeks measured on week 2 postinfection radiographic analysis; type: functional, organism-based; set-up: dose 60 mg/kg
Staphylococcus aureus [2] = test: Antimicrobial activity against methicillin-resistant Staphylococcus aureus infected in New Zealand rabbit osteomyelitis model assessed as improvement in rate of bone reconstruction at 60 mg/kg, po administered every 8 hrs for 4 weeks measured on week 6 postinfection radiographic analysis; type: functional, organism-based; set-up: dose 60 mg/kg
Staphylococcus aureus [3] = test: Antimicrobial activity against methicillin-resistant Staphylococcus aureus infected in New Zealand rabbit osteomyelitis model assessed as improvement in extent of bone remodeling at 60 mg/kg, po administered every 8 hrs for 4 weeks measured on week 6 postinfection radiographic analysis; type: functional, organism-based; set-up: dose 60 mg/kg
Staphylococcus aureus [4] = test: Antimicrobial activity against methicillin-resistant Staphylococcus aureus infected in New Zealand rabbit osteomyelitis model assessed as improvement in rate of bone reconstruction at 60 mg/kg, po administered every 8 hrs for 4 weeks measured on week 8 postinfection radiographic analysis; type: functional, organism-based; set-up: dose 60 mg/kg
Staphylococcus aureus [5] = test: Antimicrobial activity against methicillin-resistant Staphylococcus aureus infected in New Zealand rabbit osteomyelitis model assessed as improvement in extent of bone remodeling at 60 mg/kg, po administered every 8 hrs for 4 weeks measured on week 8 postinfection radiographic analysis; type: functional, organism-based; set-up: dose 60 mg/kg
Staphylococcus aureus [6] = test: (§1) Antimicrobial activity against methicillin-resistant Staphylococcus aureus infected in New Zealand rabbit osteomyelitis model assessed as bacterial count per gram of tibial matrix at 60 mg/kg, po administered every 8 hrs for 4 weeks measured on week 8 postinfection (reference value: 1.04 +/- 2.63 CFU/g); type: functional, organism-based; set-up: dose 60 mg/kg
Staphylococcus aureus [7] = test: as §1, with “marrow” for “matrix”; type: functional, organism-based; set-up: dose 60 mg/kg
Staphylococcus aureus [8] = test: Antimicrobial activity against Staphylococcus aureus 168-1 isolated from osteomyelitis patient by broth macrodilution method; type: functional
Oryctolagus cuniculus [9] = test: Cmin in New Zealand rabbit at 20 mg/kg, sc administered every 6 hrs for 4 days measured after 1 hr post first dose by RP-HPLC/MS/MS; type: ADME, organism-based; set-up: dose 20 mg/kg, route subcutaneous; details: in vivo, 1 h
[10] = Cmax in New Zealand rabbit osteomyelitis model at 40 mg/kg, sc administered every 6 hrs for 4 days; type: ADME, organism-based, Oryctolagus cuniculus; set-up: dose 40 mg/kg, route subcutaneous; details: in vivo
[11] = AUC in New Zealand rabbit osteomyelitis model at 40 mg/kg, sc administered every 6 hrs for 4 days; type: ADME, organism-based, Oryctolagus cuniculus; set-up: dose 40 mg/kg, route subcutaneous; details: in vivo
[12] = AUC in methicillin-resistant Staphylococcus aureus-infected New Zealand rabbit osteomyelitis model at 60 mg/kg, po after 24 hrs; type: ADME, organism-based, Oryctolagus cuniculus; set-up: time < 24 hr, dose 60 mg/kg, route oral; details: in vivo
Oryctolagus cuniculus [13] = test: Toxicity in methicillin-resistant Staphylococcus aureus-infected New Zealand rabbit osteomyelitis model assessed as body weight at 60 mg/kg, po administered every 8 hrs for 4 weeks measured on week 2 postinfection (reference value: 2.43 +/- 0.15 kg); details: in vivo
Oryctolagus cuniculus [14] = test: Toxicity in methicillin-resistant Staphylococcus aureus-infected New Zealand rabbit osteomyelitis model assessed as body weight at 60 mg/kg, po administered every 8 hrs for 4 weeks measured on week 4 postinfection (reference value: 2.43 +/- 0.15 kg); details: in vivo
Oryctolagus cuniculus [15] = test: Toxicity in methicillin-resistant Staphylococcus aureus-infected New Zealand rabbit osteomyelitis model assessed as body weight at 60 mg/kg, po administered every 8 hrs for 4 weeks measured on week 6 postinfection (reference value: 2.43 +/- 0.15 kg); details: in vivo
Oryctolagus cuniculus [16] = test: Toxicity in methicillin-resistant Staphylococcus aureus-infected New Zealand rabbit osteomyelitis model assessed as body weight at 60 mg/kg, po administered every 8 hrs for 4 weeks measured on week 8 postinfection (reference value: 2.43 +/- 0.15 kg); details: in vivo

Structure (SMILES): CC(=O)NC[C@H]1CN(c2ccc(N3CCOCC3)c(F)c2)C(=O)O1 [LINEZOLID]
- Activity (Staphylococcus aureus [1]): Active
- Activity (Staphylococcus aureus [2]): Active
- Activity (Staphylococcus aureus [3]): Active
- Activity (Staphylococcus aureus [4]): Active
- Activity (Staphylococcus aureus [5]): Active
- Activity (Staphylococcus aureus [6]): Active
- Activity (Staphylococcus aureus [7]): Active
- MBC (Staphylococcus aureus [8]): 12.5 µg/mL (≈ 37.1 µM)
- MIC (Staphylococcus aureus [8]): 1.56 µg/mL (≈ 4.62 µM)
- CFU (Oryctolagus cuniculus [9]): 0.18 ×10⁷ /g
- Cmax [10]: 27200 ng/mL
- AUC [11]: 173 µg·h/mL
- AUC at 24 h [12]: 334 µg·h/mL
- Activity (Oryctolagus cuniculus [13]): 2.35 kg
- Activity (Oryctolagus cuniculus [14]): 2.44 kg
- Activity (Oryctolagus cuniculus [15]): 2.36 kg
- Activity (Oryctolagus cuniculus [16]): 2.42 kg
